Measurements reported in PubChem BioAssay AID296 (DTP/NCI, 2004).
Where “and” joins values, the source holds several entries; their conditions need not be identical. Equal values may be shown once. Records with an inconclusive call do not appear.

Tested on: MX-1 breast xenograft, nude mice, tumor weight T/C
Experiment: NCI In Vivo Anticancer Drug Screen. Data for tumor model Human Mammary Carcinoma MX-1 Xenograft (intrarenal inoculation) in NU/NU Swiss (nude) mice
Conditions: endpoint: mean tumor weight change, higher = larger tumour
Method in brief: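 Activity is given as a ratio, with each measurement in the compound-treated arm divided by the matching measurement in vehicle-dosed controls. Tumour size or survival serves as the measured parameter.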

[1] = dose: 50.0 mg/kg/injection, schedule: Q01DX010 (sc), vehicle: saline with Tween-80
[2] = dose: 100.0 mg/kg/injection, schedule: Q01DX010 (sc), vehicle: saline with Tween-80
[3] = dose: 200.0 mg/kg/injection, schedule: Q01DX010 (sc), vehicle: saline with Tween-80
[4] = dose: 300.0 mg/kg/injection, schedule: Q04DX003 (sc), vehicle: saline
[5] = dose: 600.0 mg/kg/injection, schedule: Q04DX003 (sc), vehicle: saline
[6] = dose: 1200.0 mg/kg/injection, schedule: Q04DX003 (sc), vehicle: saline
[7] = dose: 2400.0 mg/kg/injection, schedule: Q04DX003 (sc), vehicle: saline
[8] = dose: 300.0 mg/kg/injection, schedule: Q04DX003 (sc), vehicle: Klucel (hydroxypropylcellulose) (HPC)
[9] = dose: 600.0 mg/kg/injection, schedule: Q04DX003 (sc), vehicle: Klucel (hydroxypropylcellulose) (HPC)
[10] = dose: 1200.0 mg/kg/injection, schedule: Q04DX003 (sc), vehicle: Klucel (hydroxypropylcellulose) (HPC)
[11] = dose: 25.0 mg/kg/injection, schedule: Q01DX010 (sc), vehicle: saline

## Cn1cnc([N+](=O)[O-])c1Sc1ncn[nH]1
dose: 100.0 mg/kg/injection, schedule: Q04DX003 (sc), vehicle: suspension in saline
  T/C: 72 % of control
dose: 200.0 mg/kg/injection, schedule: Q04DX003 (sc), vehicle: suspension in saline
  T/C: 95 % of control
dose: 400.0 mg/kg/injection, schedule: Q04DX003 (sc), vehicle: suspension in saline
  T/C: 92 % of control

## Cc1cc(NCCCCCCCCNc2cc(C)nc3cc(N(C)C)ccc23)c2ccc(N(C)C)cc2n1
dose: 150.0 mg/kg/injection, schedule: Q04DX003 (sc), vehicle: distilled water + Tween-80 + alcohol
  T/C: 67 % of control
dose: 300.0 mg/kg/injection, schedule: Q04DX003 (sc), vehicle: distilled water + Tween-80 + alcohol
  T/C: 74 % of control
dose: 600.0 mg/kg/injection, schedule: Q04DX003 (sc), vehicle: distilled water + Tween-80 + alcohol
  T/C: 43 % of control
dose: 1200.0 mg/kg/injection, schedule: Q04DX003 (sc), vehicle: distilled water + Tween-80 + alcohol
  T/C: 71 % of control

## O=c1nc(Oc2ccccc2)nc2ncccn12
dose: 25.0 mg/kg/injection, schedule: Q01DX010 (sc), vehicle: saline with Tween-80
  T/C: 100 % of control
[1]
  T/C: 120 % of control
[2]
  T/C: 42 % of control
[3]
  T/C: 46 % of control

## OC(CBr)C(O)C(O)C(O)CBr (centres undefined)
dose: 15.0 mg/kg/injection, schedule: Q01DX010 (sc), vehicle: Klucel (hydroxypropylcellulose) (HPC)
  T/C: 39 % of control and 42 % of control
dose: 800.0 mg/kg/injection, schedule: Q01DX010 (sc), vehicle: Klucel (hydroxypropylcellulose) (HPC)
  T/C: -100 % of control
dose: 1600.0 mg/kg/injection, schedule: Q01DX010 (sc), vehicle: Klucel (hydroxypropylcellulose) (HPC)
  T/C: -87 % of control

## COc1ccc(CC2C(=O)NC(C)C(=O)N(C)C3Cc4ccc(cc4)Oc4cc(ccc4O)CC(C(=O)NC(C)C(=O)NC(C)C(=O)N2C)N(C)C3=O)cc1 (centres undefined)
dose: 8.0 mg/kg/injection, schedule: Q04DX003 (sc), vehicle: saline with Tween-80
  T/C: 28 % of control and 44 % of control and 47 % of control
dose: 16.0 mg/kg/injection, schedule: Q04DX003 (sc), vehicle: saline with Tween-80
  T/C: 20 % of control and 26 % of control and 43 % of control
dose: 32.0 mg/kg/injection, schedule: Q04DX003 (sc), vehicle: saline with Tween-80
  T/C: 6 % of control and 18 % of control

## N#CC(OC1OC(COC2OC(CO)C(O)C(O)C2O)C(O)C(O)C1O)c1ccccc1 (centres undefined)
[4]
  T/C: 67 % of control
[5]
  T/C: 83 % of control
[6]
  T/C: 71 % of control
[7]
  T/C: 75 % of control

## CC(C)(C)C1CCCCC1
[8]
  T/C: 101 % of control
[9]
  T/C: 89 % of control
[10]
  T/C: 75 % of control
dose: 2400.0 mg/kg/injection, schedule: Q04DX003 (sc), vehicle: Klucel (hydroxypropylcellulose) (HPC)
  T/C: 65 % of control

## CSCS(=O)C[C@H](CO)NC(=O)/C=C/c1c(C)[nH]c(=O)[nH]c1=O (some centres undefined)
dose: 0.38 mg/kg/injection, schedule: Q04DX003 (sc), vehicle: saline
  T/C: 106 % of control
dose: 0.75 mg/kg/injection, schedule: Q04DX003 (sc), vehicle: saline
  T/C: 97 % of control

## O=CN(SSN(C=O)C1CCCCC1)C1CCCCC1
[1]
  T/C: 69 % of control
[2]
  T/C: 83 % of control
[3]
  T/C: 53 % of control
dose: 400.0 mg/kg/injection, schedule: Q01DX010 (sc), vehicle: saline with Tween-80
  T/C: 34 % of control

## O=[N+]([O-])c1ccc(N(CCO)CCO)c2c1no[n+]2[O-]
dose: 12.5 mg/kg/injection, schedule: Q04DX003 (ip), vehicle: saline with Tween-80
  T/C: 101 % of control
dose: 25.0 mg/kg/injection, schedule: Q04DX003 (ip), vehicle: saline with Tween-80
  T/C: 108 % of control
dose: 50.0 mg/kg/injection, schedule: Q04DX003 (ip), vehicle: saline with Tween-80
  T/C: 75 % of control

## O=C(Nc1ccc(N=C=S)cc1Cl)c1cc(Cl)cc(Cl)c1O
dose: 25.0 mg/kg/injection, schedule: Q04DX003 (sc), vehicle: Klucel (hydroxypropylcellulose) (HPC)
  T/C: 105 % of control
dose: 50.0 mg/kg/injection, schedule: Q04DX003 (sc), vehicle: Klucel (hydroxypropylcellulose) (HPC)
  T/C: 79 % of control
dose: 100.0 mg/kg/injection, schedule: Q04DX003 (sc), vehicle: Klucel (hydroxypropylcellulose) (HPC)
  T/C: 117 % of control
dose: 400.0 mg/kg/injection, schedule: Q04DX003 (sc), vehicle: Klucel (hydroxypropylcellulose) (HPC)
  T/C: 50 % of control
dose: 800.0 mg/kg/injection, schedule: Q04DX003 (sc), vehicle: Klucel (hydroxypropylcellulose) (HPC)
  T/C: 48 % of control

## CC(=O)NC(Cc1ccc(F)cc1)C(=O)O (centres undefined)
dose: 300.0 mg/kg/injection, schedule: Q04DX003 (sc), vehicle: saline with Tween-80
  T/C: 100 % of control
dose: 600.0 mg/kg/injection, schedule: Q04DX003 (sc), vehicle: saline with Tween-80
  T/C: 101 % of control
dose: 1200.0 mg/kg/injection, schedule: Q04DX003 (sc), vehicle: saline with Tween-80
  T/C: 120 % of control
dose: 2400.0 mg/kg/injection, schedule: Q04DX003 (sc), vehicle: saline with Tween-80
  T/C: 111 % of control

## CC12CC(C(=O)O)C3(O)CC(C)(C1)CC(C)(C2)C3 (centres undefined) (tested in a mixture with another compound)
[8]
  T/C: 87 % of control
[9]
  T/C: 168 % of control
[10]
  T/C: 102 % of control

## CNC(=O)SCC(N)C(=O)O (centres undefined)
dose: 112.5 mg/kg/injection, schedule: Q04DX003 (ip), vehicle: saline
  T/C: 86 % of control
dose: 225.0 mg/kg/injection, schedule: Q04DX003 (ip), vehicle: saline
  T/C: 67 % of control
dose: 450.0 mg/kg/injection, schedule: Q04DX003 (ip), vehicle: saline
  T/C: 27 % of control
dose: 900.0 mg/kg/injection, schedule: Q04DX003 (ip), vehicle: saline
  T/C: 17 % of control

## COC1/C=C/O[C@@]2(C)Oc3c(C)c(O)c4c(O)c(cc(O)c4c3C2=O)NC(=O)/C(C)=C\C=C\[C@H](C)C(O)[C@@H](C)[C@@H](O)[C@@H](C)[C@H](OC(C)=O)[C@@H]1C (some centres undefined)
dose: 600.0 mg/kg/injection, schedule: Q04DX003 (sc), vehicle: suspension in saline
  T/C: 153 % of control
dose: 2400.0 mg/kg/injection, schedule: Q04DX003 (sc), vehicle: suspension in saline
  T/C: 150 % of control

## COc1cccc2c1C(=O)c1c(O)c3c(c(O)c1C2=O)C[C@H](O)C[C@@H]3OC1CC(N)C(O)C(C)O1 (some centres undefined)
dose: 3.12 mg/kg/injection, schedule: Q01DX010 (sc), vehicle: saline
  T/C: 165 % of control
dose: 6.25 mg/kg/injection, schedule: Q01DX010 (sc), vehicle: saline
  T/C: 83 % of control
dose: 12.5 mg/kg/injection, schedule: Q01DX010 (sc), vehicle: saline
  T/C: 66 % of control
[11]
  T/C: 81 % of control

## OCC1OC(n2cnc3c(=S)nc[nH]c32)C(O)C1O (centres undefined)
[11]
  T/C: 38 % of control and 60 % of control
dose: 50.0 mg/kg/injection, schedule: Q01DX010 (sc), vehicle: suspension in saline
  T/C: 84 % of control
dose: 100.0 mg/kg/injection, schedule: Q01DX010 (sc), vehicle: saline
  T/C: 12 % of control and 17 % of control
dose: 100.0 mg/kg/injection, schedule: Q01DX010 (sc), vehicle: suspension in saline
  T/C: -81 % of control
dose: 200.0 mg/kg/injection, schedule: Q01DX010 (sc), vehicle: saline
  T/C: -22 % of control
[4]
  T/C: 98 % of control
[5]
  T/C: 69 % of control
[6]
  T/C: 39 % of control
[7]
  T/C: 13 % of control

## NC(Cc1ccc(N(CCCl)CCCl)cc1)C(=O)O (centres undefined)
dose: 10.0 mg/kg/injection, schedule: Q04DX003 (sc), vehicle: Klucel (hydroxypropylcellulose) (HPC)
  T/C: -99 % of control
dose: 20.0 mg/kg/injection, schedule: Q04DX003 (sc), vehicle: Klucel (hydroxypropylcellulose) (HPC)
  T/C: -100 % of control
dose: 40.0 mg/kg/injection, schedule: Q04DX003 (sc), vehicle: Klucel (hydroxypropylcellulose) (HPC)
  T/C: -99 % of control

## Nc1nc2c(C(=O)N3CCCC3)nnn2c2ccccc12
dose: 37.5 mg/kg/injection, schedule: Q04DX003 (sc), vehicle: saline with Tween-80
  T/C: 35 % of control
dose: 75.0 mg/kg/injection, schedule: Q04DX003 (sc), vehicle: saline with Tween-80
  T/C: 74 % of control
dose: 150.0 mg/kg/injection, schedule: Q04DX003 (sc), vehicle: saline with Tween-80
  T/C: 49 % of control

## Oc1ccc(O)cc1
dose: 25.0 mg/kg/injection, schedule: Q04DX003 (sc), vehicle: saline
  T/C: 81 % of control
dose: 50.0 mg/kg/injection, schedule: Q04DX003 (sc), vehicle: saline
  T/C: 71 % of control
dose: 100.0 mg/kg/injection, schedule: Q04DX003 (sc), vehicle: saline
  T/C: 75 % of control
